Assay results: patent US20160030438A1, “ANTI-TUMORAL COMPOSITION COMPRISING A PI3KBETA INHIBITOR AND A RAF INHIBITOR, TO OVERCOME CANCER CELLS RESISTANCE” (SANOFI, priority 2013, published 2016)

Columns and labels:
[1] = system: human melanoma cell line A2058; test: In vitro anti-proliferative activity (CelltiterGlo, ray design) in A2058, example 3; assay type: cell-based; conditions: for Absolute IC40: A2058, 96 hours, example 3
Method: (I) in combination with the BRAF inhibitor compound (II), experiments were conducted using human melanoma cell line A2058 (BRAF mutant, PTEN-deficient and unsensitive to said BRAF inhibitor).
(§1) The human melanoma A2058 cell line was purchased at ATCC (Ref number CRL-11147 Batch 5074651). The A2058 cells were cultured in DMEM High glucose medium supplemented with 10% FBS and 2 mM L-Glutamine.
Compounds (I) and (II) dilutions were prepared according to the material and methods of example 1. The final concentrations tested were defined by Ray design method described below. The DMSO concentration was 0.1% in controls and in all treated wells.
A ray design was used allowing the characterization of the interaction of the two compounds for several fixed proportion in the mixture. The ray design includes one ray for each single agent and 19 combination rays.
A2058 cells were plated at 4,000 cells/well in 384-well plates in appropriate culture medium and incubated for 6 hours at 37° C., 5% CO2. […] Cell growth was evaluated by measuring intracellular ATP using CelltiterGlo® reagent (Promega) according to the manufacturer's protocol. Briefly, CellTiterGlo® was added to each plate, incubated for 1 hour then luminescent signal was read on the MicroBeta Luminescent plate reader.
Four experiments have been performed on this cell line. For each experiment, two 384-well plates were used allowing working with duplicates for combination rays and with quadruplicates for single agent rays.
Inhibition of cell growth was estimated after treatment with single compounds or combination of compounds for four days and comparing the signal to cells treated with vehicle (DMSO) and following equation described in example 1.
These measurements allow determining the potential synergistic combinations in using the statistical method described in example 1.

[2] = system: ribosomal protein S6 phosphorylated on Ser240/244 (pS6) in A2058 cells; test: In vitro S6 phosphorylation inhibition (pS6 western blot) in A2058, example 8; assay type: cell-based, human; conditions: for inhibition at 0.1 µM: Homo sapiens
Method: (§2) The inhibitory effect on ribosomal S6 protein phosphorylation by both compounds alone or in combination was characterized using western blotting method which allows investigating S6 phosphorylation by detecting the expression of ribosomal protein S6 phosphorylated on Ser240/244 position (pS6).
as §1
Cell treatment, Western Blot experiment and calculation of percentage of pS6 inhibition were performed according to the material and method described in example 7.

[3] = system: human melanoma cell line A2058; test: In vitro pro-apoptotic activity (PARP cleavage western blot) in A2058, example 4; assay type: cell-based
Method: (§3) The characterization of the interaction between compound (I) and compound (II) was studied using western blotting method which allows investigating apoptosis by detecting the cleavage of the PARP protein.
as §1
(§4) Cell treatment, Western Blot experiment and calculation of apoptosis fold induction were performed according to the material and method described in example 2.

[4] = system: ribosomal protein S6 phosphorylated on Ser240/244 (pS6) in WM-266-4 cells; test: In vitro S6 phosphorylation inhibition (pS6 western blot) in WM-266-4, example 7; assay type: cell-based, human; conditions: for inhibition at 0.1 µM: Homo sapiens
Method: as §2
(§5) The human melanoma WM-266-4 cell line was purchased at ATCC (Ref number CRL-1676 Batch 3272826). The WM-266-4 cells were cultured in RPMI1640 medium supplemented with 10% FBS and 2 mM L-Glutamine.
WM-266-4 cells were seeded into 6-well microplates at 1 000 000 cells per well, in complete culture medium and incubated at 37° C., 5% CO2, overnight.
At the end of cell treatment period, adherent cells as well as cells in the cell culture supernatant were lysed for the preparation of the proteins. Cells were lysed in a lysis buffer containing Hepes 50 mM, NaCl 150 mM, Glycerol 10%, Triton 1%, pH=7.5, adding extemporaneously a cocktail of protease and phosphatase inhibitors diluted 100 fold. Protein concentrations in each sample were determined using microBCA technique according to manufacturer's instructions. […] After western blotting revelation according to the operating procedure instructions, luminescence was read using FujiFilm (Ray Test) apparatus.
This instrument measures the total signal of luminescence obtained on Fujifilm machine (AU) for each selected band. Then, it subtracts the background value (BG) proportional to the size of the selected band or Area. The background is calculated from a band taken on the specific background of the western blot, to obtain the specific signal or (AU−BG) for each band. The calculation of the percentage of inhibition is performed for each treatment with compound or combination of compounds using the following formula:
Inhibition %=1−(((AU−BG)t/(AU−BG)st))*100

[5] = system: human melanoma cell line WM-266-4; test: In vitro pro-apoptotic activity (PARP cleavage) in WM-266-4 in a concentration-dependent manner, example 5; assay type: cell-based; conditions: WM-266-4, example 5
Method: as §3, §5
They were diluted following two 10-fold step dilution in DMSO in order to obtain a 1 mM solution and a 0.1 mM solution Then each solution at 10 mM, 1 mM or 0.1 mM was diluted 50-fold in culture medium containing 10% serum before being added onto cells with a 20-fold dilution factor to reach final concentrations of 10,000 nM, 1,000 nM and 100 nM. The final DMSO concentration was 0.1% in controls and in all treated wells.
as §4

[6] = system: human melanoma cell line A2058; test: In vitro pro-apoptotic activity (PARP cleavage) in A2058 in a concentration-dependent manner, example 6; assay type: cell-based; conditions: A2058, example 6
Method: as §3, §1, §4

[7] = single agent 10 000 nM, A2058, example 4
[8] = single agent 10 000 nM, 24 hours
[9] = Homo sapiens, single agent 100 nM

Row | Structure (SMILES) | Absolute IC40 ([1]; single agent) | inhibition at 0.1 µM ([2]; single agent 100 nM) [%] | pS6 signal (AU-BG) ([2]; single agent 100 nM) | Inhibition % of S6 phosphorylation ([2]; single agent 1 000 nM) [%] | pS6 signal (AU-BG) ([2]; single agent 1 000 nM) | Inhibition % of S6 phosphorylation ([2]; single agent 10 000 nM) [%] | pS6 signal (AU-BG) ([2]; single agent 10 000 nM) | PARP cleavage signal (AU-BG) [3, 7] [AU-BG] | inhibition at 0.1 µM ([4]; single agent 100 nM) [%] | pS6 signal (AU-BG) ([4]; single agent 100 nM) | Inhibition % of S6 phosphorylation ([4]; single agent 1 000 nM) [%] | pS6 signal (AU-BG) ([4]; single agent 1 000 nM) | Inhibition % of S6 phosphorylation [4, 8] [%] | pS6 signal (AU-BG) [4, 8] [AU-BG] | PARP cleavage signal (AU-BG) ([5]; single agent 100 nM) | PARP cleavage signal (AU-BG) ([5]; single agent 1 000 nM) | PARP cleavage signal (AU-BG) ([5]; single agent 10 000 nM) | PARP cleavage signal (AU-BG) ([6]; single agent 100 nM) | PARP cleavage signal (AU-BG) ([6]; single agent 1 000 nM) | PARP cleavage signal (AU-BG) ([6]; single agent 10 000 nM) | further results
1 | CCCS(=O)(=O)Nc1ccc(F)c(C(=O)c2c[nH]c3ncc(-c4ccc(Cl)cc4)cc23)c1F [Compound (II), 1-Propanesulfonamide,N-[3-[[5-(4-chlorophenyl)-1H-pyrrolo[2,3-b]pyridin-3-yl]carbonyl]-2,4-difluorophenyl]] | 1,890 nM | 27 | 21830955 | 40 | 17943024 | 62 | 11383792 | 2501364 | 76 | 9230994 | 92 | 3163194 | 94 | 2333062 | 413818 | 662217 | 876269 | 2431268 | 4540797 | 5192876 | IC50 ([1]; Homo sapiens, A2058, approximately, read-out: IC50 with A2058 unsensitive cancer cells): ~4.2 µM; IC40, antiproliferative effect, A2058 ([1]; single agent, approximately): ~1,200 nM; Fold induction of PARP cleavage ([3]; human, 24 h, 10000 nM): 1.00 fold; Fold induction of PARP cleavage [3, 7]: 1.17 fold; fold induction at 0.1 µM [5, 9]: 1.62; Fold induction of PARP cleavage ([5]; single agent 1 000 nM): 2.59 fold; Fold induction of PARP cleavage ([5]; single agent 10 000 nM): 3.42 fold; fold induction at 0.1 µM [6, 9]: 1.14; Fold induction of PARP cleavage ([6]; single agent 1 000 nM): 2.13 fold; Fold induction of PARP cleavage ([6]; single agent 10 000 nM): 2.44 fold
2 | C[C@H]1Cc2ccccc2N1C(=O)Cc1nc(N2CCOCC2)cc(=O)[nH]1 [Compound (I), 2-{2-[(2S)-2-methyl-2,3-dihydro-1H-indol-1-yl]-2-oxoethyl}-6-(morpholin-4-yl)pyrimidin-4(3H)-one] | 11,500 nM | 8 | 27394341 | 42 | 17416427 | 73 | 8161752 | 2141626 | 69 | 12132104 | 90 | 3984365 | 94 | 2239754 | 241428 | 502317 | 1756263 | 2380877 | 2685395 | 5173100 | 
